Measurements: patent publication US7988984B2, “Insect repellent and attractant and auto-thermostatic membrane vapor control delivery system” (Energy Related Devices, Inc., priority 2005, dated 2011)

How the values were obtained:
mosquitoes [1] = test: Mosquitoes tracking and locating a human with a fresh coating of DEET on the skin; type: in vivo; conditions: fresh coating of DEET mosquito repellent on skin
[2] = highest dose (most concentrated DEET sold); cited from earlier work
[3] = applied on the skin; from the literature search; cited from earlier work
mosquitoes [4] = test: Mosquito behaviour at decoy band with a DEET-filled ampoule; type: in vivo; conditions: only DEET used in ampoule of decoy band
Excerpt: Initially the scents are designed to attract the mosquitoes preferentially to the band 1. When the mosquito is nearing contact the DEET will interfere with the chemical sensors of the mosquito and they will use only infrared and visual cues. If she is close enough, within roughly three meters, she will be attracted to the dark pupil pattern 5 and infrared emissions on the band 1 and at close range land on the border area 3 of red or pink and the white area 4 of the decoy. If not close enough for visual cues she may then wander off with some dose of DEET to hamper her long-range ability to find prey. By landing on the decoy 3,4,5 the Mosquito will obtain a high concentration of DEET vapor disabling and interfering with her chemical sensors.
Chemicals such as citronella may confuse the mosquito's appetite. […] If the user moves or brushes the mosquito away this may be sufficient to put them far enough away from visual cues to attack again, reducing the chances that she will be able to find an authentic victim. The ampoules 7, 8 can be designed with a desired diffusion delivery rate of DEET and scents 10, 28 in sufficient volume to effectively deliver a steady chemical vapor for days.

SMILES: CCN(CC)C(=O)c1cccc(C)c1 [DEET, N,N-diethyl-3-methylbenzamide]
- ability of mosquitoes to track and locate a human (mosquitoes [1]): still able to track and locate a human
- time DEET remains on the skin [2]: roughly 8 hours
- fraction of DEET absorbed through the skin [3]: 6-15%
- mosquito behaviour toward the decoy (mosquitoes [4]): repeatably attacking the decoy
